Results reported in US5583147A, “Amides for the treatment of atherosclerosis” (The Dupont Merck Pharmaceutical Company, priority 1994, dated 1996).
pIC50: −log10 of the molar value.

Target: T1, Acyl-CoA: Cholesterol Acyltransferase (ACAT) (Rattus norvegicus, UniProt Q7TQM4)
T1 construct: centrifuged at 105,000×g for 1 hour to pellet the microsomes; from tissue; host or cells: liver microsomes of male Sprague Dawley rats
T1 sequence (Q7TQM4 1-524): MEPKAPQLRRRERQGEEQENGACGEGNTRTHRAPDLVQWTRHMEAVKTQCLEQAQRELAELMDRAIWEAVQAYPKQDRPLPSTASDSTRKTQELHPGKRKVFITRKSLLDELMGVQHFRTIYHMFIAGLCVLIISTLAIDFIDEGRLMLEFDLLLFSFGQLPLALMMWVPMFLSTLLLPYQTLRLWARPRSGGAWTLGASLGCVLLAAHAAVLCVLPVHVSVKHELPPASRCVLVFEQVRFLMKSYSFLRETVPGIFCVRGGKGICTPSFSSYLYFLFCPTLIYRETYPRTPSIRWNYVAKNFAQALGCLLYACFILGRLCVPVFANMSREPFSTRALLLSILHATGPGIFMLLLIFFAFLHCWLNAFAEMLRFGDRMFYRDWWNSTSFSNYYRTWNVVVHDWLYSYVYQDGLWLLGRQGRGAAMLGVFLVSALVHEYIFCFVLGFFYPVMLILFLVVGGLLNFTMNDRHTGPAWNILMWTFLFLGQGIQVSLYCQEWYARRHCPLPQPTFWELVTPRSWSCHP
Experiment: Inhibition of Acyl-CoA: Cholesterol Acyltransferase (ACAT) in Hepatic Microsomes (In Vitro Assay)
Type: biochemical, rat (male Sprague Dawley)
Details: 75 μM 14C-oleoyl-CoA, pH 7.4, 37° C., 10 min, read-out: ACAT Inhibitory Activity (In Vitro) (IC50)
Method: A. Assay of the Inhibition of Acyl-CoA: Cholesterol Acyltransferase (ACAT) in Hepatic Microsomes (In Vitro Assay)
The ability of the compounds to inhibit ACAT, the enzyme responsible for the intracellular synthesis of cholesteryl esters, was tested as follows. Male Sprague Dawley rats weighing 150-300 g, were fed rat chow ad libitum. The animals were fasted for twenty-four hours prior to being euthanized by CO2. The livers were perfused in situ with 50 ml of cold 0.25 sucrose, excised, and homogenized in three volumes of 0.1M phosphate buffer, pH 7.4, that contained 0.5 mM EDTA (ethylenediamine-tetraacetic acid), 1.0 mM glutathione, 0.25M sucrose and […] leupeptin. Microsomes were obtained by differential centrifugation; the supernatant from an initial spin at 15,000×g for 15 minutes was centrifuged at 105,000×g for 1 hour to pellet the microsomes. The microsomes were suspended in homogenization buffer, reisolated by centrifugation, and stored at -70° C. Microsomes were used within one month of preparation.
The control assay in a final volume of 200 μl consisted of 200 μg of microsomal protein, 75 μM ^14 C-oleoyl-CoA (10,000 dpm/nmol) in 0.1M phosphate, pH 7.4, that contained 1 mM glutathione. Compounds were added in 5 μl of DMSO (dimethyl sulfoxide) and additional controls were run with DMSO only. All components, except the oleoyl-CoA, were preincubated for 15 min. at 37° C. prior to the initiation of the reaction by the addition of oleoyl-CoA. The assay was terminated after 10 min by the addition of 4 ml of chloroform:methanol (2:1, v/v). 20,000 dpm of ^3 H-cholesteryl oleate and 10 μg of unlabeled cholesteryl oleate and oleic acid were added as an internal standard and carriers, respectively. After allowing 10 min. for lipid extraction, the samples were centrifuged at 1,000×g for 10 min to separate the solvent layers. The chloroform layer containing the neutral lipids was spotted onto a Baker SI250-Pa silica gel TLC plate and the plate developed using a hexane:diethyl ether:acetic acid (170:30:1) v/v/v) mobile phase. The lipids were visualized by their interaction with iodine vapor and the cholesteryl ester spot was scraped into a scintillation vial and counted. The specific activity of ACAT in the control incubation averaged 260 pmol/min/mg microsomal protein. The data obtained are expressed as the concentration at which ACAT activity is inhibited by 50% (IC50).

| pIC50 | Structure (SMILES) |
| --- | --- |
| > 6.00 | CCCCCCSC(C(=O)Nc1c(SC)cc(C)nc1SC)c1ccccc1 (single isomer, unassigned) [Example 41, N-[2,4-bis(methylthio)-6-methyl-3-pyridyl]-L-(+)-α-hexylthio-phenylacetamide] |
| > 6.00 | CCCCCCSC(C(=O)Nc1c(C(C)C)cccc1C(C)C)c1ccccc1 (single isomer, unassigned) [Example 42, N-(2,6-diisopropyl-phenyl)-D-(-)-α-hexylthio-phenylacetamide] |
| > 6.00 | CSc1cc(C)nc(SC)c1NC(=O)C(SCc1ccccc1)c1ccccc1 (single isomer, unassigned) [Example 46, N-[2,4-bis(methylthio)-6-methyl-3-pyridyl]-D-(-)-α-benzylthio-phenylacetamide] |
| > 6.00 | CSc1cc(C)nc(SC)c1NC(=O)C(SCc1ccccc1)c1ccccc1 (single isomer, unassigned) [Example 47, N-[2,4-bis(methylthio)-6-methyl-3-pyridyl]-L-(+)-α-benzylthio-phenylacetamide] |
| > 6.00 | CC(C)c1cccc(C(C)C)c1NC(=O)C(SCc1ccccc1)c1ccccc1 (single isomer, unassigned) [Example 48, N-(2,6-diisopropyl-phenyl)-D-(-)-α-benzylthio-phenylacetamide] |
| > 6.00 | CCSC(C(=O)Nc1c(SC)cc(C)nc1SC)c1ccccc1 (single isomer, unassigned) [Example 49, N-[2,4-bis(methylthio)-6-methyl-3-pyridyl]-D-(-)-α-ethylthio-phenylacetamide] |
| > 6.00 | CCSC(C(=O)Nc1c(SC)cc(C)nc1SC)c1ccccc1 (single isomer, unassigned) [Example 50, N-[2,4-bis(methylthio)-6-methyl-3-pyridyl]-L-(+)-α-ethylthio-phenylacetamide] |
| > 6.00 | CSc1cc(C)nc(SC)c1NC(=O)C(Sc1ccccc1)c1ccccc1 (single isomer, unassigned) [Example 63, N-[2,4-his (methylthio)-6-methyl-3-pyridyl]-L-(+)-α-phenylthio-phenylacetamide] |
| 5.00 to 6.00 | CC(C)c1cccc(C(C)C)c1NC(=O)C(Sc1ccccc1)c1ccccc1 (single isomer, unassigned) [Example 64] |
| > 6.00 | CCCCCCSC(C(=O)Nc1c(SC)cc(C)nc1SC)c1ccc(Cl)cc1 (stereo not drawn) [Example 85, N-[2,4-bis(methylthio)-6-methyl-3-pyridyl]-α-hexylthio-4-chloro-phenylacetamide] |
| > 6.00 | CSc1cc(C)nc(SC)c1NC(=O)C(SCc1ccccc1)c1ccc(Cl)cc1 (stereo not drawn) [Example 89, N-[2,4-bis(methylthio)-6-methyl-3-pyridyl]-α-benzylthio-4-chloro-phenylacetamide] |
| > 6.00 | COc1ccc(CSC(C(=O)Nc2c(SC)cc(C)nc2SC)c2ccc(Cl)cc2)cc1 (stereo not drawn) [Example 90, N-[2,4-bis(methylthio)-6-methyl-3-pyridyl]-α-(4-methoxy-benzylthio)-4-chloro-phenylacetamide] |
| > 6.00 | CSc1cc(C)nc(SC)c1NC(=O)C(SCc1ccc(F)cc1)c1ccc(Cl)cc1 (stereo not drawn) [Example 91, N-[2,4-bis(methylthio)-6-methyl-3-pyridyl]-α-(4-fluoro-benzylthio)-4-chloro-phenylacetamide] |
| > 6.00 | CSc1cc(C)nc(SC)c1NC(=O)C(SCc1ccc(Cl)cc1)c1ccc(Cl)cc1 (stereo not drawn) [Example 92, N-[2,4-bis(methylthio)-6-methyl-3-pyridyl]-α-(4-chloro-benzylthio)-4-chloro-phenylacetamide] |
| > 6.00 | CSc1cc(C)nc(SC)c1NC(=O)C(Sc1ccccc1)c1ccc(Cl)cc1 (stereo not drawn) [Example 102, N-[2,4-bis(methylthio)-6-methyl-3-pyridyl]-α-phenylthio-4-chloro-phenylacetamide] |
| > 6.00 | COc1ccc(SC(C(=O)Nc2c(SC)cc(C)nc2SC)c2ccc(Cl)cc2)cc1 (stereo not drawn) [Example 103, N-[2,4-bis(methylthio)-6-methyl-3-pyridyl]-α-(4-methoxy-phenylthio)-4-chloro-phenylacetamide] |
| > 6.00 | CSc1cc(C)nc(SC)c1NC(=O)C(Sc1ccc(F)cc1)c1ccc(Cl)cc1 (stereo not drawn) [Example 104, N-[2,4-bis(methylthio)-6-methyl-3-pyridyl]-α-(4-fluoro-phenylthio)-4-chloro-phenylacetamide] |
| > 6.00 | CCCCCCSC(C(=O)Nc1c(SC)cc(C)nc1SC)c1ccc(OC)cc1 (stereo not drawn) [Example 118, N-[2,4-bis(methylthio)-6-methyl-3-pyridyl]-α-hexylthio-4-methoxy-phenylacetamide] |
| > 6.00 | COc1ccc(C(SCc2ccccc2)C(=O)Nc2c(SC)cc(C)nc2SC)cc1 (stereo not drawn) [Example 122, N-[2,4-bis(methylthio)-6-methyl-3-pyridyl]-α-benzylthio-4-methoxy-phenylacetamide] |
| > 6.00 | COc1ccc(C(SCc2ccc(Cl)cc2)C(=O)Nc2c(SC)cc(C)nc2SC)cc1 (stereo not drawn) [Example 123, N-[2,4-bis(methylthio)-6-methyl-3-pyridyl]-α-(4-chloro-benzylthio)-4-methoxy-phenylacetamide] |
| > 6.00 | COc1ccc(C(SCc2ccc(F)cc2)C(=O)Nc2c(SC)cc(C)nc2SC)cc1 (stereo not drawn) [Example 124, N-[2,4-bis(methylthio)-6-methyl-3-pyridyl]-α-(4-fluoro-benzylthio)-4-methoxy-phenylacetamide] |
| > 6.00 | COc1ccc(CSC(C(=O)Nc2c(SC)cc(C)nc2SC)c2ccc(OC)cc2)cc1 (stereo not drawn) [Example 125, N-[2,4-bis(methylthio)-6-methyl-3-pyridyl]-α-(4-methoxy-benzylthio)-4-methoxy-phenylacetamide] |
| > 6.00 | COc1ccc(C(Sc2ccccc2)C(=O)Nc2c(SC)cc(C)nc2SC)cc1 (stereo not drawn) [Example 135, N-[2,4-bis(methylthio)-6-methyl-3-pyridyl]-α-phenylthio-4-methoxy-phenylacetamide] |
| > 6.00 | COc1ccc(C(Sc2ccc(F)cc2)C(=O)Nc2c(SC)cc(C)nc2SC)cc1 (stereo not drawn) [Example 136, N-[2,4-bis(methylthio)-6-methyl-3-pyridyl]-α-(4-fluoro-phenylthio)-4-methoxy-phenylacetamide] |
| > 6.00 | COc1ccc(SC(C(=O)Nc2c(SC)cc(C)nc2SC)c2ccc(OC)cc2)cc1 (stereo not drawn) [Example 137, N-[2,4-bis(methylthio)-6-methyl-3-pyridyl]-α-(4-methoxy-phenylthio)-4-methoxy-phenylacetamide] |
| 5.00 to 6.00 | COc1ccc(C(OC)C(=O)Nc2c(SC)cc(C)nc2SC)cc1 (stereo not drawn) [Example 146, N-[2,4-bis(methylthio)-6-methyl-3-pyridyl]-α-O-methyl-4-methoxymandeloamide] |
| 5.00 to 6.00 | COc1ccc(C(OC)C(=O)Nc2c(C(C)C)cccc2C(C)C)cc1 (stereo not drawn) [Example 147, N-(2,6-diisopropyl-phenyl)-α-O-methyl-4-methoxymandeloamide] |
| > 6.00 | CCCCCCSC(C(=O)Nc1c(SC)cc(C)nc1SC)c1ccc(F)cc1 (stereo not drawn) [Example 148, N-[2,4-bis(methylthio)-6-methyl-3-pyridyl]-α-hexylthio-4-fluoro-phenylacetamide] |
| > 6.00 | CSc1cc(C)nc(SC)c1NC(=O)C(SCc1ccccc1)c1ccc(F)cc1 (stereo not drawn) [Example 152, N-[2,4-bis(methylthio)-6-methyl-3-pyridyl]-α-benzylthio-4-fluoro-phenylacetamide] |
| > 6.00 | CSc1cc(C)nc(SC)c1NC(=O)C(SCc1ccc(F)cc1)c1ccc(F)cc1 (stereo not drawn) [Example 153, N-[2,4-bis(methylthio)-6-methyl-3-pyridyl]-α-(4-fluoro-benzylthio)-4-fluoro-phenylacetamide] |
